Residues, ends and D or L forms follow the SMILES beside them.
System: E. coli BL21
Conditions: BL21, 17 h
Experimental: The peptide MIC was determined via the broth microdilution assay according to the EUCAST guideline, using 96-well polystyrene flat-bottom microtiter plates (BD Biosciences). Briefly, a single colony was inoculated in 5 mL Mueller-Hinton (MH) medium and incubated, while shaking at 37°C, to the end-exponential growth phase. The bacterial culture was subsequently diluted to 0.005 McFarland (McF) (~1.5x10^6 CFU/mL) with fresh MH medium. Two-fold serial peptide-dilutions were prepared in 50 μL MH medium resulting in a concentration range of 0.75 to 100 μg/mL (at least three wells for each concentration). Afterwards, 50 μL of the freshly diluted bacterial suspension (0.005 McF) was mixed with different peptide concentrations in the 96-well plate, performed in triplicates. The plate was ultimately incubated at 37°C overnight without shaking for 17 hours. The MIC was determined as the lowest peptide concentration without visible bacterial growth.

Structure (SMILES) | BL21 MIC | BL21 MIC, SS bond | BL21 MIC, no SS bond
CC(C)C[C@H](NC(=O)CNC(=O)[C@H](CCCNC(=N)N)NC(=O)[C@@H]1CCCN1C(=O)[C@H](CCCNC(=N)N)NC(=O)[C@H](CCCNC(=N)N)NC(=O)[C@@H](NC(=O)[C@H](CC(C)C)NC(=O)[C@H](C)NC(=O)[C@H](CC(C)C)NC(=O)CNC(=O)[C@H](CC(C)C)NC(=O)CNC(=O)[C@@H](N)CCCNC(=N)N)C(C)C)C(=O)NCC(=O)N[C@@H](CC(C)C)C(=O)N[C@@H](C)C(=O)N[C@@H](CC(C)C)C(=O)N[C@H](C(=O)N[C@@H](C)C(=O)N[C@@H](CCCNC(=N)N)C(=O)O)C(C)C [Peptide P2_R20A] (H-RGLGLALVRRPRGLGLALVAR-OH) | 6.25 µg/mL | – | –
CC[C@H](C)[C@H](NC(=O)CNC(=O)[C@H](CC(C)C)NC(=O)[C@@H]1CCCN1C(=O)[C@H](CCCNC(=N)N)NC(=O)[C@H](CC(C)C)NC(=O)[C@H](C)NC(=O)[C@@H](NC(=O)[C@H](C)NC(=O)[C@@H](NC(=O)CNC(=O)[C@H](CC(C)C)NC(=O)[C@@H](N)CCCNC(=N)N)[C@@H](C)CC)C(C)C)C(=O)N[C@@H](C)C(=O)N[C@H](C(=O)N[C@@H](C)C(=O)N[C@@H](CC(C)C)C(=O)N[C@@H](CCCNC(=N)N)C(=O)O)C(C)C [Peptide P33_3R_2] (H-RLGIAVALRPLGIAVALR-OH) | 25.00 µg/mL | – | –
CC[C@H](C)[C@H](NC(=O)CNC(=O)[C@H](CC(C)C)NC(=O)[C@@H](N)CCCNC(=N)N)C(=O)N[C@@H](C)C(=O)N[C@H](C(=O)N[C@@H](C)C(=O)N[C@@H](CC(C)C)C(=O)N[C@@H](CCCNC(=N)N)C(=O)N[C@@H](CCCNC(=N)N)C(=O)N1CCC[C@H]1C(=O)N[C@@H](CCCNC(=N)N)C(=O)N[C@@H](CC(C)C)C(=O)N[C@@H](C)C(=O)N[C@H](C(=O)N[C@@H](C)C(=O)N[C@H](C(=O)N[C@@H](C)C(=O)N[C@@H](CC(C)C)C(=O)N[C@@H](CCCNC(=N)N)C(=O)N[C@@H](CCCNC(=N)N)C(=O)O)C(C)C)[C@@H](C)CC)C(C)C [Peptide P33-G14A] (H-RLGIAVALRRPRLAIAVALRR-OH) | 6.25 µg/mL | – | –
CC(C)C[C@H](NC(=O)CNC(=O)[C@H](CCCNC(=N)N)NC(=O)[C@@H]1CCCN1C(=O)[C@H](CCCNC(=N)N)NC(=O)[C@H](CCCNC(=N)N)NC(=O)[C@@H](NC(=O)[C@H](CC(C)C)NC(=O)[C@H](Cc1ccc(O)cc1)NC(=O)[C@H](CC(C)C)NC(=O)CNC(=O)[C@H](CC(C)C)NC(=O)CNC(=O)[C@@H](N)CCCNC(=N)N)C(C)C)C(=O)NCC(=O)N[C@@H](CC(C)C)C(=O)N[C@@H](Cc1ccc(O)cc1)C(=O)N[C@@H](CC(C)C)C(=O)N[C@H](C(=O)N[C@@H](CCCNC(=N)N)C(=O)N[C@@H](CCCNC(=N)N)C(=O)O)C(C)C [A5Y (P2)] (H-RGLGLYLVRRPRGLGLYLVRR-OH) | 6.25 µg/mL | – | –
CC(C)C[C@H](NC(=O)CNC(=O)[C@H](CCCNC(=N)N)NC(=O)[C@@H]1CCCN1C(=O)[C@H](CCCNC(=N)N)NC(=O)[C@H](CCCNC(=N)N)NC(=O)[C@H](C)NC(=O)[C@H](CC(C)C)NC(=O)[C@H](C)NC(=O)[C@H](CC(C)C)NC(=O)CNC(=O)[C@H](CC(C)C)NC(=O)CNC(=O)[C@@H](N)CCCNC(=N)N)C(=O)NCC(=O)N[C@@H](CC(C)C)C(=O)N[C@@H](C)C(=O)N[C@@H](CC(C)C)C(=O)N[C@H](C(=O)N[C@@H](CCCNC(=N)N)C(=O)N[C@@H](CCCNC(=N)N)C(=O)O)C(C)C [Peptide P2_V8A] (H-RGLGLALARRPRGLGLALVRR-OH) | 25.00 µg/mL | – | –
CC(C)C[C@H](NC(=O)CNC(=O)[C@@H](N)CCCNC(=N)N)C(=O)NCC(=O)N[C@@H](CC(C)C)C(=O)N[C@@H](C)C(=O)N[C@@H](CC(C)C)C(=O)N[C@H](C(=O)N[C@@H](CCCNC(=N)N)C(=O)N[C@@H](CCCNC(=N)N)C(=O)N1CCC[C@H]1C(=O)N[C@@H](CCCNC(=N)N)C(=O)NCC(=O)N[C@@H](C)C(=O)NCC(=O)N[C@@H](CC(C)C)C(=O)N[C@@H](C)C(=O)N[C@@H](CC(C)C)C(=O)N[C@H](C(=O)N[C@@H](CCCNC(=N)N)C(=O)N[C@@H](CCCNC(=N)N)C(=O)O)C(C)C)C(C)C [Peptide P2_L14A] (H-RGLGLALVRRPRGAGLALVRR-OH) | 25.00 µg/mL | – | –
CC(C)C[C@H](NC(=O)CNC(=O)[C@H](CCCNC(=N)N)NC(=O)[C@@H]1CSSC[C@H](NC(=O)[C@@H](NC(=O)[C@H](CC(C)C)NC(=O)[C@H](C)NC(=O)[C@H](CC(C)C)NC(=O)CNC(=O)[C@H](CC(C)C)NC(=O)CNC(=O)[C@@H](N)CCCNC(=N)N)C(C)C)C(=O)N[C@@H](CCCNC(=N)N)C(=O)N[C@@H](CCCNC(=N)N)C(=O)N2CCC[C@H]2C(=O)N1)C(=O)NCC(=O)N[C@@H](CC(C)C)C(=O)N[C@@H](C)C(=O)N[C@@H](CC(C)C)C(=O)N[C@H](C(=O)N[C@@H](CCCNC(=N)N)C(=O)N[C@@H](CCCNC(=N)N)C(=O)O)C(C)C [Peptide P2_var9] | – | 6.25 µg/mL | 6.25 µg/mL
CC(C)C[C@H](NC(=O)CNC(=O)[C@H](CCCNC(=N)N)NC(=O)[C@@H]1CCCN1C(=O)[C@H](CCCNC(=N)N)NC(=O)[C@H](CCCNC(=N)N)NC(=O)[C@@H](NC(=O)[C@H](CC(C)C)NC(=O)[C@H](C)NC(=O)[C@H](CC(C)C)NC(=O)CNC(=O)[C@H](CC(C)C)NC(=O)CNC(=O)[C@@H](N)CCCNC(=N)N)C(C)C)C(=O)NCC(=O)N[C@@H](CC(C)C)C(=O)N[C@@H](CC(C)C)C(=O)N[C@@H](CC(C)C)C(=O)N[C@H](C(=O)N[C@@H](CCCNC(=N)N)C(=O)N[C@@H](CCCNC(=N)N)C(=O)O)C(C)C [Peptide P2_A5L] (H-RGLGLALVRRPRGLGLLLVRR-OH) | 6.25 µg/mL | – | –
CC(C)C[C@H](NC(=O)CNC(=O)[C@@H](N)CCCNC(=N)N)C(=O)NCC(=O)N[C@@H](CC(C)C)C(=O)N[C@@H](C)C(=O)N[C@@H](CC(C)C)C(=O)N[C@H](C(=O)N[C@@H](CCCNC(=N)N)C(=O)N[C@@H](CCCNC(=N)N)C(=O)N1CCC[C@H]1C(=O)N[C@@H](CCCNC(=N)N)C(=O)NCC(=O)N[C@@H](CC(C)C)C(=O)N[C@@H](C)C(=O)N[C@@H](CC(C)C)C(=O)N[C@@H](C)C(=O)N[C@@H](CC(C)C)C(=O)N[C@H](C(=O)N[C@@H](CCCNC(=N)N)C(=O)N[C@@H](CCCNC(=N)N)C(=O)O)C(C)C)C(C)C [Peptide P2_G15A] (H-RGLGLALVRRPRGLALALVRR-OH) | 12.50 µg/mL | – | –
CC[C@H](C)[C@H](NC(=O)CNC(=O)[C@H](CC(C)C)NC(=O)[C@H](CCCNC(=N)N)NC(=O)[C@@H]1CCCN1C(=O)[C@H](CCCNC(=N)N)NC(=O)[C@H](CCCNC(=N)N)NC(=O)[C@H](CC(C)C)NC(=O)[C@H](C)NC(=O)[C@@H](NC(=O)[C@H](C)NC(=O)[C@@H](NC(=O)CNC(=O)[C@H](CC(C)C)NC(=O)[C@@H](N)CCCNC(=N)N)[C@@H](C)CC)C(C)C)C(=O)N[C@@H](C)C(=O)N[C@H](C(=O)N[C@@H](C)C(=O)N[C@@H](CC(C)C)C(=O)N[C@@H](C)C(=O)N[C@@H](C)C(=O)O)C(C)C [Peptide P33_4R_6] (H-RLGIAVALRRPRLGIAVALAA-OH) | 12.50 µg/mL | – | –
CC(C)C[C@H](NC(=O)CNC(=O)[C@H](CCCNC(=N)N)NC(=O)[C@@H]1CCCN1C(=O)[C@H](CCCNC(=N)N)NC(=O)[C@H](CCCNC(=N)N)NC(=O)[C@@H](NC(=O)[C@H](CC(C)C)NC(=O)[C@H](C)NC(=O)[C@H](CC(C)C)NC(=O)CNC(=O)[C@H](CC(C)C)NC(=O)CNC(=O)[C@@H](N)CCCNC(=N)N)C(C)C)C(=O)NCC(=O)N[C@@H](CC(C)C)C(=O)N[C@@H](Cc1ccccc1)C(=O)N[C@@H](CC(C)C)C(=O)N[C@H](C(=O)N[C@@H](CCCNC(=N)N)C(=O)N[C@@H](CCCNC(=N)N)C(=O)O)C(C)C [Peptide P2_A5F] (H-RGLGLALVRRPRGLGLFLVRR-OH) | 3.13 µg/mL | – | –
CC[C@H](C)[C@H](NC(=O)CNC(=O)[C@H](CC(C)C)NC(=O)[C@H](CCCNC(=N)N)NC(=O)[C@@H]1CCCN1C(=O)[C@H](C)NC(=O)[C@H](CCCNC(=N)N)NC(=O)[C@H](CC(C)C)NC(=O)[C@H](C)NC(=O)[C@@H](NC(=O)[C@H](C)NC(=O)[C@@H](NC(=O)CNC(=O)[C@H](CC(C)C)NC(=O)[C@@H](N)CCCNC(=N)N)[C@@H](C)CC)C(C)C)C(=O)N[C@@H](C)C(=O)N[C@H](C(=O)N[C@@H](C)C(=O)N[C@@H](CC(C)C)C(=O)N[C@@H](C)C(=O)N[C@@H](CCCNC(=N)N)C(=O)O)C(C)C [Peptide P33_4R_4] (H-RLGIAVALRAPRLGIAVALAR-OH) | 12.50 µg/mL | – | –
CC(C)C[C@H](NC(=O)CNC(=O)[C@H](CCCNC(=N)N)NC(=O)[C@H](CCCNC(=N)N)NC(=O)[C@@H]1CCCN1C(=O)[C@H](CCCNC(=N)N)NC(=O)[C@@H](NC(=O)[C@H](CC(C)C)NC(=O)[C@H](C)NC(=O)[C@H](CC(C)C)NC(=O)CNC(=O)[C@H](CC(C)C)NC(=O)CNC(=O)[C@H](CCCNC(=N)N)NC(=O)[C@@H](N)CCCNC(=N)N)C(C)C)C(=O)NCC(=O)N[C@@H](CC(C)C)C(=O)N[C@@H](C)C(=O)N[C@@H](CC(C)C)C(=O)N[C@H](C(=O)N[C@@H](CCCNC(=N)N)C(=O)O)C(C)C [Peptide P2_GK_10] (H-RRGLGLALVRPRRGLGLALVR-OH) | 12.50 µg/mL | – | –
CC(C)C[C@H](NC(=O)CNC(=O)[C@H](CCCNC(=N)N)NC(=O)[C@@H]1CCCN1C(=O)[C@H](CCCNC(=N)N)NC(=O)[C@H](CCCNC(=N)N)NC(=O)[C@@H](NC(=O)[C@H](CC(C)C)NC(=O)[C@H](CC(C)C)NC(=O)[C@H](CC(C)C)NC(=O)CNC(=O)[C@H](CC(C)C)NC(=O)CNC(=O)[C@@H](N)CCCNC(=N)N)C(C)C)C(=O)NCC(=O)N[C@@H](CC(C)C)C(=O)N[C@@H](CC(C)C)C(=O)N[C@@H](CC(C)C)C(=O)N[C@H](C(=O)N[C@@H](CCCNC(=N)N)C(=O)N[C@@H](CCCNC(=N)N)C(=O)O)C(C)C [A5L (P2)] (H-RGLGLLLVRRPRGLGLLLVRR-OH) | 12.50 µg/mL | – | –

Source: paper PMC10065276, “Enhanced therapeutic window for antimicrobial Pept-ins by investigating their structure-activity relationship” (PLOS ONE, 2023)
